# Measurements published in patent US20240270741A1 (Cogent Biosciences, Inc., priority 2023, published 2024).
# Target: FGFR2 (Homo sapiens, UniProt P21802)
# Assay: FGFR wild type enzyme assay (HTRF KinEASE-TK), FGFR2
# Settings: Enz FGFR2 (nM), FGFR2 wild type enzyme assay
# FGFR2, sequence (P21802 399-821 limits assumed): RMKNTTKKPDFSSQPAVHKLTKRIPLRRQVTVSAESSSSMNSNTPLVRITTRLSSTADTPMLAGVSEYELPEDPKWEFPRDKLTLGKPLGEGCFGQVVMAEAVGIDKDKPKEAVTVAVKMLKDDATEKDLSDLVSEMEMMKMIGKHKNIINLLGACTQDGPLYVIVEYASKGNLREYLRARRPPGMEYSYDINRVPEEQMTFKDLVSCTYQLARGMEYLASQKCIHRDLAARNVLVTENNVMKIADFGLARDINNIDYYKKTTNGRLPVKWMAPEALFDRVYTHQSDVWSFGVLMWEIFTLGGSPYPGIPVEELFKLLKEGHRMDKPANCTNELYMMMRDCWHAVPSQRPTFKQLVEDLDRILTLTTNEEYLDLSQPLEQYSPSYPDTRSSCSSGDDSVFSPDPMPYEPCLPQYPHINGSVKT
row,SMILES,IC50 [nM]
1,"Cc1c(-c2cc(Sc3ccc(F)cc3C#N)c3c(C#N)cnn3c2)cnn1C[C@H](O)CO [Example 531, (S)-4-((2-cyano-4-fluorophenyl)thio)-6-(1-(2,3-dihydroxypropyl)-5-methyl-1H-pyrazol-4-yl)pyrazolo[1,5-a]pyridine-3-carbonitrile]",11
2,"C[C@H](O)C(=O)N1CCC[C@H](n2cc(-c3cc(Sc4ccccc4C#N)c4c(C#N)cnn4c3)cn2)C1 [Example 532, 4-((2-cyanophenyl)thio)-6-(1-((S)-1-((S)-2-hydroxypropanoyl)piperidin-3-yl)-1H-pyrazol-4-yl)pyrazolo[1,5-a]pyridine-3-carbonitrile]",0.5
3,"C[C@H](O)C(=O)N1CCC[C@@H](n2cc(-c3cc(Sc4ccccc4C#N)c4c(C#N)cnn4c3)cn2)C1 [Example 533, 4-((2-cyanophenyl)thio)-6-(1-((R)-1-((S)-2-hydroxypropanoyl)piperidin-3-yl)-1H-pyrazol-4-yl)pyrazolo[1,5-a]pyridine-3-carbonitrile]",1
4,"N#Cc1ccccc1Sc1cc(-c2cnn([C@@H]3CCCN(CCO)C3)c2)cn2ncc(C#N)c12 [Example 534, (R)-4-((2-cyanophenyl)thio)-6-(1-(1-(2-hydroxyethyl)piperidin-3-yl)-1H-pyrazol-4-yl)pyrazolo[1,5-a]pyridine-3-carbonitrile]",0.5
5,"N#Cc1ccccc1Sc1cc(-c2cnn([C@@H]3CCCNC3)c2)cn2ncc(C#N)c12 [Example 535, (R)-4-((2-cyanophenyl)thio)-6-(1-(piperidin-3-yl)-1H-pyrazol-4-yl)pyrazolo[1,5-a]pyridine-3-carbonitrile]",0.4
6,"N#Cc1ccccc1Sc1cc(-c2cnn([C@@H]3CCCN(C(=O)CO)C3)c2)cn2ncc(C#N)c12 [Example 536, (R)-4-((2-cyanophenyl)thio)-6-(1-(1-(2-hydroxyacetyl)piperidin-3-yl)-1H-pyrazol-4-yl)pyrazolo[1,5-a]pyridine-3-carbonitrile]",1
7,"CC(=O)N1CCC[C@@H](n2cc(-c3cc(Sc4ccccc4C#N)c4c(C#N)cnn4c3)cn2)C1 [Example 537, (R)-6-(1-(1-acetylpiperidin-3-yl)-1H-pyrazol-4-yl)-4-((2-cyanophenyl)thio)pyrazolo [1,5-a]pyridine-3-carbonitrile]",1
8,"COCC(=O)N1CCC(n2cc(-c3cc(Sc4ccccc4C#N)c4c(C#N)cnn4c3)cn2)CC1 [Example 538, 4-((2-cyanophenyl)thio)-6-(1-(1-(2-methoxyacetyl)piperidin-4-yl)-1H-pyrazol-4-yl)pyrazolo[1,5-a]pyridine-3-carbonitrile]",0.3
9,Cc1ccc(-c2cc(Sc3ccccc3C#N)c3c(C#N)cnn3c2)cn1 [Example 539],9
10,CNC(=O)Cn1cc(-c2cc(Sc3ccccc3C#N)c3c(C#N)cnn3c2)cn1 [Example 540],1
11,"CN(C)C(=O)Cn1cc(-c2cc(Sc3ccccc3C#N)c3c(C#N)cnn3c2)cn1 [Example 541, 2-(4-(3-cyano-4-((2-cyanophenyl)thio)pyrazolo [1,5-a]pyridin-6-yl)-1H-pyrazol-1-yl)-N,N-dimethylacetamide]",1
12,"N#Cc1ccccc1Sc1cc(-c2cnn(C3CCOCC3)c2)cn2ncc(C#N)c12 [Example 542, 4-((2-cyanophenyl)thio)-6-(1-(tetrahydro-2H-pyran-4-yl)-1H-pyrazol-4-yl)pyrazolo[1,5-a]pyridine-3-carbonitrile]",0.4
13,"Cc1c(-c2cc(Sc3ccc(F)cc3C#N)c3c(C#N)cnn3c2)cnn1[C@H]1CC[C@H](OP(=O)(O)O)CC1 [Example 543, [4-[4-[3-cyano-4-(2-cyano-4-fluoro-phenyl)sulfanyl-pyrazolo[1,5-a]pyridin-6-yl]-5-methylpyrazol-1-yl]cyclohexyl] dihydrogen phosphate]",2
14,"N#Cc1ccccc1Sc1cc(-c2cnn(C[C@H](O)CO)c2)cn2ncc(C#N)c12 [Example 544, (S)-4-((2-cyanophenyl)thio)-6-(1-(2,3-dihydroxypropyl)-1H-pyrazol-4-yl)pyrazolo[1,5-a]pyridine-3-carbonitrile]",1
15,"Cn1ncc(-c2cc(Sc3ncccc3F)c3c(C#N)cnn3c2)c1N [Example 545, 6-(5-amino-1-methyl-pyrazol-4-yl)-4-[(3-fluoro-2-pyridyl)sulfanyl]pyrazolo[1,5-a]pyridine-3-carbonitrile]",3
16,"N#Cc1cc(F)ccc1Sc1cc(-c2cnn(-c3cn[nH]c3)c2)cn2ncc(C#N)c12 [Example 546, 6-(1′H-[1,4′-bipyrazol]-4-yl)-4-((2-cyano-4-fluorophenyl)thio)pyrazolo [1,5-a]pyridine-3-carbonitrile]",6
17,"Cc1c(-c2cc(Sc3ccc(F)cc3C#N)c3c(C#N)cnn3c2)cnn1C1CCOC1 (centres unmarked) [Example 547, 4-((2-cyano-4-fluorophenyl)thio)-6-(5-methyl-1-(tetrahydrofuran-3-yl)-1H-pyrazol-4-yl)pyrazolo[1,5-a]pyridine-3-carbonitrile]",3
18,"N#Cc1ccccc1Sc1cc(-c2ccc(N3CCC(O)CC3)nc2)cn2ncc(C#N)c12 [Example 548, 4-((2-cyanophenyl)thio)-6-(6-(4-hydroxypiperidin-1-yl)pyridin-3-yl)pyrazolo[1,5-a]pyridine-3-carbonitrile]",0.4

row,SMILES,IC50 [nM]
1,"N#Cc1ccccc1Sc1cc(-c2ccc(N3CCCC3)nc2)cn2ncc(C#N)c12 [Example 549, 4-((2-cyanophenyl)thio)-6-(6-(pyrrolidin-1-yl)pyridin-3-yl)pyrazolo[1,5-a]pyridine-3-carbonitrile]",1
2,"N#Cc1cnn2cc(-c3ccc(N4CC[C@H](O)C4)nc3)cc(Sc3ncccc3F)c12 [Example 550, (S)-4-((3-fluoropyridin-2-yl)thio)-6-(6-(3-hydroxypryrrolidin-1-yl)pyridin-3-yl)pyrazolo[1,5-a]pyridine-3-carbonitrile]",1.5
3,"N#Cc1cnn2cc(-c3ccc(N4CC[C@@H](O)C4)nc3)cc(Sc3ncccc3F)c12 [Example 551, (R)-4-((3-fluoropyridin-2-yl)thio)-6-(6-(3-hydroxypyrrolidin-1-yl)pyridin-3-yl)pyrazolo[1,5-a]pyridine-3-carbonitrile]",2
4,"N#Cc1cnn2cc(-c3ccc(N4CCC(O)CC4)nc3)cc(Sc3ncccc3F)c12 [Example 552, 4-((3-fluoropyridin-2-yl)thio)-6-(6-(4-hydroxypiperidin-1-yl)pyridin-3-yl)pyrazolo[1,5-a]pyridine-3-carbonitrile]",1
5,"N#Cc1cnn2cc(-c3ccc(N4CCNCC4)nc3)cc(Sc3ncccc3F)c12 [Example 553, 4-((3-fluoropyridin-2-yl)thio)-6-(6-(piperazin-1-yl)pyridin-3-yl)pyrazolo[1,5-a]pyridine-3-carbonitrile]",1
6,"N#Cc1cnn2cc(-c3ccc(N4CCCC4)nc3)cc(Sc3ncccc3F)c12 [Example 554, 4-((3-fluoropyridin-2-yl)thio)-6-(6-(pyrrolidin-1-yl)pyridin-3-yl)pyrazolo[1,5-a]pyridine-3-carbonitrile]",2
7,"CC(=O)N1CCN(c2ccc(-c3cc(Sc4ncccc4F)c4c(C#N)cnn4c3)cn2)CC1 [Example 555, 6-(6-(4-acetylpiperazin-1-yl)pyridin-3-yl)-4-((3-fluoropyridin-2-yl)thio)pyrazolo[1,5-a]pyridine-3-carbontrile]",1
8,"Cc1c(-c2cc(Sc3ccccc3C#N)c3c(C#N)cnn3c2)cnn1C1CCN(C#N)CC1 [Example 556, 4-((2-cyanophenyl)thio)-6-(1-(1-cyanopiperidin-4-yl)-5-methyl-1H-pyrazol-4-yl)pyrazolo[1,5-a]pyridine-3-carbonitrile]",1
9,Cc1c(-c2cc(Sc3ncccc3F)c3c(C#N)cnn3c2)cnn1C1CCN(C#N)CC1 [Example 557],2
10,"Cn1cc(-c2cc(Sc3ccc(F)cc3C#N)c3c(C#N)cnn3c2)cn1 [Example 558, 4-((2-cyano-4-fluorophenyl)thio)-6-(1-methyl-1H-pyrazol-4-yl)pyrazolo[1,5-a]pyridine-3-carbonitrile]",2
11,"N#Cc1cc(F)ccc1Sc1cc(-c2ccc(N3CCCC3)nc2)cn2ncc(C#N)c12 [Example 559, 4-((2-cyano-4-fluorophenyl)thio)-6-(6-(pyrrolidin-1-yl)pyridin-3-yl)pyrazolo[1,5-a]pyridine-3-carbonitrile]",1
12,"CN1CCN(c2ccc(-c3cc(Sc4ccc(F)cc4C#N)c4c(C#N)cnn4c3)cn2)CC1 [Example 560, 4-((2-cyano-4-fluorophenyl)thio)-6-(6-(4-methylpiperazin-1-yl)pyridin-3-yl)pyrazolo[1,5-a]pyridine-3-carbonitrile]",1
13,"Cc1c(-c2cc(Sc3ccc(F)cc3C#N)c3c(C#N)cnn3c2)cnn1C[C@@H](O)CO [Example 561, (R)-4-((2-cyano-4-fluorophenyl)thio)-6-(1-(2,3-dihydroxypropyl)-5-methyl-1H-pyrazol-4-yl)pyrazolo[1,5-a]pyridine-3-carbonitrile]",7
14,"CC(=O)NC1CCN(c2ccc(-c3cc(Sc4ccccc4C#N)c4c(C#N)cnn4c3)cn2)C1 (centres unmarked) [Example 562, N-(1-(5-(3-cyano-4-((2-cyanophenyl)thio)pyrazolo [1,5-a]pyridin-6-yl)pyridin-2-yl)pyrrolidin-3-yl)acetamide]",1
15,"C[C@@H](O)C(=O)N1CCC[C@@H](n2cc(-c3cc(Sc4ccccc4C#N)c4c(C#N)cnn4c3)cn2)C1 [Example 563, 4-((2-cyanophenyl)thio)-6-(1-((R)-1-((R)-2-hydroxypropanoyl)piperidin-3-yl)-1H-pyrazol-4-yl)pyrazolo[1,5-a]pyridine-3-carbonitrile]",1
16,"CO[C@@H](C)C(=O)N1CCC(n2cc(-c3cc(Sc4ccccc4C#N)c4c(C#N)cnn4c3)cn2)CC1 [Example 564, (S)-4-((2-cyanophenyl)thio)-6-(1-(1-(2-methoxypropanoyl)piperidin-4-yl)-1H-pyrazol-4-yl)pyrazolo[1,5-a]pyridine-3-carbonitrile]",0.5
17,"CO[C@H](C)C(=O)N1CCC(n2cc(-c3cc(Sc4ccccc4C#N)c4c(C#N)cnn4c3)cn2)CC1 [Example 565, (R)-4-((2-cyanophenyl)thio)-6-(1-(1-(2-methoxypropanoyl)piperidin-4-yl)-1H-pyrazol-4-yl)pyrazolo[1,5-a]pyridine-3-carbonitrile]",0.5
